Test results from PMC2120106 (The Journal of Cell Biology, 1994).

Assays:
isolated vacuoles = test: microscopic in vitro fusion assay with CDCFDA-labeled vacuoles; set-up: species or system Saccharomyces cerevisiae; conditions: standard fusion reaction, 120 min; for vacuole fusion / morphology seen by fluorescence microscopy: 20 uM, Fig. 6 D, E, G, H
[1] = system: vacuole-to-vacuole fusion; test: in vitro vacuole-to-vacuole fusion assay; format: biochemical, Saccharomyces cerevisiae; conditions: for effect on in vitro vacuole-to-vacuole fusion (in words): added to standard reaction, Figs. 5, 7 A or data not shown; for effect on inter-vacuole fusion: Fig. 7 A
G-proteins = conditions: cited from earlier work; for stimulation of G-proteins in vitro: ref Oppi et al., 1992

CO/C1=C\C(C)=C\[C@@H](C)[C@@H](O)[C@@H](C)C/C(C)=C/C=C/[C@H](OC)[C@@H]([C@@H](C)[C@@H](O)[C@H](C)[C@@]2(O)C[C@@H](O)[C@H](C)[C@@H](C(C)C)O2)OC1=O [bafilomycin Al]
vacuole fusion / morphology seen by fluorescence microscopy (isolated vacuoles): blocked vacuole fusion
effect on in vitro vacuole-to-vacuole fusion (in words) ([1]; 25C, 120 min): inhibited vacuole fusion in vitro

LKIALNLKALIAAK-NH2 [MAS-PEP2]
stimulation of G-proteins in vitro (G-proteins): do not stimulate G-proteins in vitro
effect on in vitro vacuole-to-vacuole fusion (in words) ([1]; 25C, 120 min): inactive in the fusion assay

NILALAKALIKALK-NH2 [mas-PEP8]
stimulation of G-proteins in vitro (G-proteins): potent G-protein activators

Triton X-100
influence on the inhibition of fusion by mastoparan ([1]; 0-30 ug/ml plus 20 uM mastoparan, Fig. 8): did not influence the effects of mastoparan on fusion
fusion in standard fusion reactions ([1]; added at 0.01%, data not shown): no fusion could be observed
effect on vacuole fusion ([1]; detergent control, up to highest concentration tested, 30 ug/ml, Fig. 8): did not inhibit vacuole fusion

benzalkonium chloride [BAC]
concentration of maximal inhibition of inter-vacuolar fusion ([1]; alone in standard fusion assay, Fig. 8): 10 #g/ml

N#CC(C#N)=NNc1cccc(Cl)c1 [CCCP, carbonyl cyanide m-chlorophenyl-hydrazone]
vacuole fusion / morphology seen by fluorescence microscopy (isolated vacuoles): blocked vacuole fusion
effect on in vitro vacuole-to-vacuole fusion (in words) ([1]; 25C, 120 min): inhibited vacuole fusion in vitro

Lithium
effect on in vitro vacuole-to-vacuole fusion (in words) ([1]; 25C, 120 min): did not influence the fusion reactions

NC[C@@H]1O[C@H](O[C@H]2[C@@H](O)[C@H](O[C@@H]3[C@@H](O)[C@H](N)C[C@H](N)[C@H]3O[C@H]3O[C@H](CN)[C@@H](O)[C@H](O)[C@H]3N)O[C@@H]2CO)[C@H](N)[C@@H](O)[C@@H]1O [Neomycin]
vacuole fusion seen by fluorescence microscopy (isolated vacuoles; 0.6 mM, Fig. 6 C): blocked vacuole fusion
concentration that blocks inter-vacuole fusion ([1]; standard reaction, 25C, 120 min, Fig. 5 A): 0.2 mM

LNAKLKAIALALIK-NH2 [mas-PEP7]
stimulation of G-proteins in vitro (G-proteins): do not stimulate G-proteins in vitro
effect on in vitro vacuole-to-vacuole fusion (in words) ([1]; 25C, 120 min): inactive in the fusion assay

Nc1nc2c(ncn2[C@@H]2O[C@H](COP(=O)(O)OP(=O)(O)OP(O)(O)=S)[C@@H](O)[C@H]2O)c(=O)[nH]1 [GTP3,S, Guanosine 5'-0-(3-thiotriphosphate)]
vacuole fusion seen by fluorescence microscopy (isolated vacuoles; 1.0 mM, Fig. 6 F): fusion was largely inhibited

mastoparan
effect on in vitro vacuole-to-vacuole fusion (in words) ([1]; 25C, 120 min): inhibited

INLQALALAALAQALL-NH2 [Mas7[Q4;Q11]]
vacuole fusion / morphology seen by fluorescence microscopy (isolated vacuoles): only a weak influence
stimulation of G-proteins (G-proteins; ref Higashijima, T., personal communication): does not stimulate G-proteins
relief of the inhibition caused by mas7 ([1]; both compounds added together, data not shown): did not relieve
effect on inter-vacuole fusion ([1]; concentrations up to 50 uM, standard reaction): did not inhibit
effect on inter-vacuole fusion ([1]; very high concentration, 100 uM, standard reaction): did inhibit

F [fluoride]
effect on in vitro vacuole-to-vacuole fusion (in words) ([1]; 25C, 120 min): inhibitory
